Where two headings read alike, the source gives them in different places.
Columns and labels:
[1] = Hydrolytic (chemical) stability in aqueous solution, HPLC; assay type: physicochemical
Procedure: The different aqueous solutions (0.05 % copanlisib; after addition of 50 % 2-propanol, [buffer solution filtered with 0.5µm membrane filter]) were stored at 25°C and 70°C for 24 h and one week. An analytical HPLC-method has been developed to determine assay and organic impurities of copanlisib as well as degradation products. Table 2 : Results on hydrolytic stability of copanlisib

[2] = system: indolent B-cell non-Hodgkin lymphoma
Procedure: Methods: Patients with indolent B-cell non-Hodgkin lymphoma (4 subtypes: follicular (FL), marginal zone (MZL), small lymphocytic (SLL) and lymphoplasmacytoid/Waldenström macroglobulinemia (LPL-WM)) and relapsed after, or refractory to, ≥2 prior lines of treatment were eligible. […] Copanlisib (60 mg, I.V.) was intermittently administered on days 1, 8 and 15 of a 28-day cycle.

[3] = Solubility of copanlisib dihydrochloride, flask method, HPLC; assay type: physicochemical; conditions: for Descriptive term: according to Ph. Eur./USP; for solubility at 19 h: 25 °C, thermodynamic from solid
Text: The suspension was centrifuged before HPLC analysis.

[4] = full analysis set, 142 patients

For `COc1c(OCCCN2CCOCC2)ccc2c1N=C(NC(=O)c1cnc(N)nc1)N1CCN=C21` [copanlisib, 2-amino-N-[7-methoxy-8-(3-morpholin-4-ylpropoxy)-2,3-dihydroimidazo[1,2-c]quinazolin-5-yl]pyrimidine-5-carboxamide], the Appearance ([1]; 0.1M HCl, 1 week, 25°C) was “slightly colored solution”, the Appearance ([1]; 0.1M HCl, 1 week, 70°C) was “slightly colored solution” and the Appearance ([1]; 0.1M HCl, 24 h, 25°C) was “slightly colored solution”. The Appearance ([1]; 0.1M HCl, 24h, 70°C) was “slightly colored solution”, the Appearance ([1]; 0.1M HCl, Initial) was “slightly colored solution” and the Appearance ([1]; 0.1 M NaOH, 1week, 25°C) was “slightly colored solution”. For the same compound, the Appearance ([1]; 0.1 M NaOH, 1week, 70°C) was “slightly colored solution”, the Appearance ([1]; 0.1 M NaOH, 24 h, 25°C) was “slightly colored solution” and the Appearance ([1]; 0.1 M NaOH, 24h, 70°C) was “slightly colored solution”. The Appearance ([1]; 0.1 M NaOH, Initial) was “slightly colored solution”, the Appearance ([1]; Buffer pH 7, 1 week, 25°C) was “slightly colored turbid solution” and the Appearance ([1]; Buffer pH 7, 1 week, 70°C) was “slightly colored solution”. The Appearance ([1]; Buffer pH 7, 24 h, 25°C) was “slightly colored turbid solution”, the Appearance ([1]; Buffer pH 7, 24 h, 70°C) was “slightly colored solution” and the Appearance ([1]; Buffer pH 7, Initial) was “slightly colored turbid solution”. For the same compound, the Appearance ([1]; Water, 1 week, 25°C) was “slightly colored solution”, the Appearance ([1]; Water, 1 week, 70°C) was “slightly colored solution” and the Appearance ([1]; Water, 24 h, 25°C) was “slightly colored solution”. For the same compound, the Appearance ([1]; Water, 24h, 70°C) was “slightly colored solution”, the Appearance ([1]; Water, Initial) was “slightly colored solution” and the CR ([2]; FL subset) was 14.4%. For the same compound, the ORR ([2]; FL subset) was 58.7%, the PR ([2]; FL subset) was 44.2% and the “estimated Kaplan-Meier (KM) median duration of response” value ([2]; FL subset (range 0-687)) was 370 days. It also gave a CR ([2]; MZL subset) of 8.7%, an ORR ([2]; MZL subset) of 69.6% and a PR ([2]; MZL subset) of 60.9%. The “AEs of interest: colitis” value ([2]; all grade) was 0.7%, the “AEs of interest: diarrhea” value ([2]; all grade) was 18% and the “AEs of interest: lung infection” value ([2]; all grade) was 14%. For the same compound, the “AEs of interest: neutropenia” value ([2]; all grade) was 25%, the “AEs of interest: pneumonitis” value ([2]; all grade) was 7% and the “treatment-related adverse events: hypertension” value ([2]; all grade) was 29%. For the same compound, the “treatment-related adverse events: transient hyperglycemia” value ([2]; all grade, 60 mg I.V. days 1, 8, 15 of 28-day cycle) was 49%, the “Laboratory toxicities: alanine aminotransferase” value ([2]; all-grade) was 23% and the “Laboratory toxicities: aspartate aminotransferase” value ([2]; all-grade) was 28%. For the same compound, the Median overall survival ([2]; at the time of primary analysis) was “had not yet been reached”, the “complete response (CR)” value ([2]; full analysis set) was 12.0% and the “estimated Kaplan-Meier (KM) median duration of response” value ([2]; full analysis set (range 0-687)) was 687 days. For the same compound, the colonic perforations [2, 4] was “No colonic perforations occurred”, the deaths [2, 4] was 6 and the non-fatal opportunistic infections [2, 4] was “two”. The “AEs of interest: colitis” value ([2]; human, in vivo) was 0.7%, the “AEs of interest: diarrhea” value ([2]; human, in vivo) was 4% and the “AEs of interest: lung infection” value ([2]; human, in vivo) was 11%. The “AEs of interest: neutropenia” value ([2]; human, in vivo) was 19%, the “AEs of interest: pneumonitis” value ([2]; human, in vivo) was 1.4% and the “Laboratory toxicities: alanine aminotransferase” value ([2]; human, in vivo) was 19%. The “Laboratory toxicities: aspartate aminotransferase” value ([2]; human, in vivo) was 25%, the “treatment-related adverse events: hypertension” value ([2]; human, in vivo) was 23% and the “treatment-related adverse events: transient hyperglycemia” value ([2]; human, in vivo) was 40%. For the same compound, the “deaths attributed to copanlisib” value ([2]; lung infection, respiratory failure, and a thromboembolic event) was 3 and the “KM-estimate of median PFS” value ([2]; range 0-736) was 340 days.

In the case of `COc1c(OCCCN2CCOCC2)ccc2c1N=C(NC(=O)c1cnc(N)nc1)N1CCN=C21.Cl.Cl` [copanlisib dihydrochloride, 2-amino-N-[7-methoxy-8-(3-morpholin-4-ylpropoxy)-2,3-dihydroimidazo[1,2-c]quinazolin-5-yl]pyrimidine-5-carboxamide dihydrochloride], the Descriptive term ([3]; 0.1 M Hydrochloric acid) is reported as “freely soluble”, the solubility at 19 h ([3]; 0.1 M hydrochloric acid, simulated gastric fluid) is reported as 190 mg/mL and the solubility at 19 h ([3]; aqueous buffer, Buffer (citrate) pH 3) is reported as 250 mg/mL. The solubility at 19 h ([3]; aqueous buffer, Buffer (citrate) pH 4) was 25 mg/mL, the solubility at 19 h ([3]; aqueous buffer, Buffer (citrate) pH 5) was 0.62 mg/mL and the solubility at 19 h ([3]; aqueous buffer, Buffer (phosphate) pH 1) was 510 mg/mL. The solubility at 19 h ([3]; aqueous buffer, Buffer (phosphate) pH 2) was 250 mg/mL, the solubility at 19 h ([3]; aqueous buffer, Buffer (phosphate) pH 6) was 0.001 mg/mL and the Descriptive term ([3]; Buffer (citrate) pH 3) was “freely soluble”. The Descriptive term ([3]; Buffer (citrate) pH 4) was “soluble”, the Descriptive term ([3]; Buffer (citrate) pH 5) was “very slightly soluble” and the Descriptive term ([3]; Buffer (phosphate) pH 1) was “freely soluble”. The Descriptive term ([3]; Buffer (phosphate) pH 2) was “freely soluble”, the Descriptive term ([3]; Buffer (phosphate) pH 6) was “practically insoluble” and the Descriptive term ([3]; Buffer (phosphate) pH 7) was “practically insoluble”. The Descriptive term ([3]; Water) was “freely soluble” and the solubility at 19 h ([3]; water) was 230 mg/mL.

From patent EP3498266A1, “FORMULATIONS OF COPANLISIB” (priority 2017, dated 2019)
